Results on two compounds are retold here after patent US20240000724A1, “Compositions and Methods for Treatment or Prevention of Oral Mucositis” (PATHWAYS BIOSCIENCE, LLC, priority 2015, published 2024).

The test relates to Nrf2 (HepG2 cells). Kind of test: Nrf2 induction by PB201 analogs in HepG2 Nrf2/ARE promoter-luciferase reporter cells. Type of test: cell-based, human. The conditions noted are these: 0-7 ug/mL, read 24 h after start of stimulation. From the text: In this Example, the effects of compounds that are structurally related to 1,3-diphenyl-1,3-propanedione are investigated.
(Reporter assays use an easily measured gene product as a stand-in for the process of interest.)

In the case of `O=C(CCCC(=O)c1ccccc1)c1ccccc1` [1,3-dibenzoylpropane], the Nrf2 activation result is recorded as “activated Nrf2”.
On to `O=C(c1ccccc1)C(Br)C(=O)c1ccccc1` [2-bromo-1,3-diphenyl-1,3-propanedione], for which the Nrf2 activation entry is “activated Nrf2”.
